From US11969505B2, “Method for freeze-drying cells in a hydrogel comprising nanofibrillar cellulose and freeze-dried cells in an aerogel comprising nanofibrillar cellulose” (UPM-KYMMENE CORPORATION, priority 2016, dated 2024)

Test system: Hep G2 cells
Assay: Cellstain double staining (Live/Dead, calcein AM / propidium iodide) viability after freeze-drying and rehydration
Assay type: cell-based, human
Settings: 24 h trehalose incubation, same lyoprotectants, liquid nitrogen freezing; with vs without GrowDex
From the text: One method to evaluate the cell membrane integrity is enzyme activity assays combined with nuclei staining. Calcein AM (acetoxy methyl) ester and propidium iodide are suitable for viability assessment of different microbes. Calcein AM is itself a non-fluorescent and cell membrane permeable molecule, but undergoes an esterase reaction when in cytosol if correct enzymes are available and transforms into calcein, which is a fluorescent molecule. This way, the fluorescent cells can be visually observed with fluorescence microscopy or a plate reader.
Therefore, only necrotic cells are affected, whereas apoptotic and healthy cells not. Once in the cytosol, the PI binds to any available DNA and RNA, including the DNA in nucleus. When excited with 535 nm light, an emission of 617 nm can be observed on the areas of dead cells.
Three lyoprotectants were chosen for testing with GrowDex®. First, the cells were cultivated regularly for 4 days either in 2D or 3D with 0.8% (w/w) of GrowDex®, and then the medium was changed. […] Then, the systems were freeze-dried and rehydrated and evaluated for viability with Cellstain double staining and fluorescence microscopy. […]
Autofluorescence was ruled out by killed control samples that were stained and imaged at the same time showing no green fluorescence in identical settings. […]

SMILES: OC[C@H]1O[C@H](O[C@H]2O[C@H](CO)[C@@H](O)[C@H](O)[C@H]2O)[C@H](O)[C@@H](O)[C@@H]1O [trehalose, α-D-glucopyranosyl-(1→1)-α-D-glucopyranoside]
- Live/dead dual staining outcome after freeze-drying and rehydration: the cells did not survive
